Test system: not given
Test: not given
Conditions: phase II trial; altered behaviour, delusion, hallucinations, extreme emotions, excited motor activity, incoherent speech; cited from earlier work

Compound | activity on positive symptoms of schizophrenia
CC(=O)N(C)C1(c2ccccc2)CCN(CCC[C@]2(c3ccc(Cl)c(Cl)c3)CCCN(C(=O)c3ccccc3)C2)CC1 [SR 142,801, Osanetant] | active

Same assay, conditions: phase II trial; depression, anhedonia, social isolation or memory and attention deficits; cited from earlier work

Compound | activity in the treatment of negative symptoms
CC(=O)N(C)C1(c2ccccc2)CCN(CCC[C@]2(c3ccc(Cl)c(Cl)c3)CCCN(C(=O)c3ccccc3)C2)CC1 [SR 142,801, Osanetant] | inactive

Target: T1, recombinant human NK3 receptor (Homo sapiens, UniProt P29371)
T1 construct: expressed in transfected cells; host or cells: HEK293 cells (transient expression), membrane preparation
T1 sequence (P29371 1-465): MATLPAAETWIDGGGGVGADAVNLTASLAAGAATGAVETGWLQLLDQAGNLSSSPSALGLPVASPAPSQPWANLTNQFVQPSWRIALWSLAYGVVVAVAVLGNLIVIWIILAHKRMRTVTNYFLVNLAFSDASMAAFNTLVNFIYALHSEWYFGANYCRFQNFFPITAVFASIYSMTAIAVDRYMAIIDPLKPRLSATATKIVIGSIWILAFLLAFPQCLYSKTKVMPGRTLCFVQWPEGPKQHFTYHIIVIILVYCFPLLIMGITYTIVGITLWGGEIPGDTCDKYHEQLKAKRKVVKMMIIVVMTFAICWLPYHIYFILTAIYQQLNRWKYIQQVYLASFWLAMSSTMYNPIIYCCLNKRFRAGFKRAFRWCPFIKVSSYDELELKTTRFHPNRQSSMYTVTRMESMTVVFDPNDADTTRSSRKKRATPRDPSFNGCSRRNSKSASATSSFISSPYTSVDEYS
Test: [3H]SR142801 competition binding assay
Conditions: membrane from HEK293 cells transiently expressing recombinant human NK3 receptor; radioligand [3H]SR142801; 75 min at RT
Method: [^3H]SR142801 Competition Binding Assay
hNK3 receptor binding experiment were performed using [^3H]SR142801 (Catalog No. TRK1035, specific activity: 74.0 Ci/mmol, Amersham, GE Healthcare UK limited, Buckinghamshire, UK) and membrane isolated from HEK293 cells transiently expressing recombinant human NK3 receptor. After thawing, the membrane homogenates were centrifuged at 48,000×g for 10 min at 4° C., the pellets were resuspended in the 50 mM Tris-HCl, 4 mM MnCl2, 1 μM phosphoramidon, 0.1% BSA binding buffer at pH 7.4 to a final assay concentration of 5 μg protein/well. […] At the end of the incubation, membranes were filtered onto unitfilter (96-well white microplate with bonded GF/C filter preincubated 1 h in 0.3% PEI+0.3% BSA, Packard BioScience, Meriden, Conn.) with a Filtermate 196 harvester (Packard BioScience) and washed 4 times with ice-cold 50 mM Tris-HCl, pH 7.4 buffer. Nonspecific binding was measured in the presence of 10 μM SB222200 for both radioligands. The radioactivity on the filter was counted (5 min) on a Packard Top-count microplate scintillation counter with quenching correction after addition of 45 μl of microscint 40 (Canberra Packard S.A., Zürich, Switzerland) and shaking for 1 h. Inhibition curves were fitted according to the Hill equation: y=100/(1+(x/IC50)^nH), where nH=slope factor using Excel-fit 4 software (Microsoft). IC50 values were derived from the inhibition curve and the affinity constant (Ki) values were calculated using the Cheng-Prussoff equation Ki=IC50/(1+[L]/KD) where [L] is the concentration of radioligand and KD is its dissociation constant at the receptor, derived from the saturation isotherm. All experiments were performed in duplicate and the mean±standard error (SEM) of the individual Ki values was calculated.

Compound | Ki
COc1cc2nc(N3CCC(Cc4ccccc4)(C(=O)Nc4cnn(C)c4)CC3)nc(O)c2cc1OC [Example 59, 4-Benzyl-1-(4-hydroxy-6,7-dimethoxy-quinazolin-2-yl)-piperidine-4-carboxylic acid (1-methyl-1H-pyrazol-4-yl)-amide] | 39.1 nM
CC[C@@H](NC(=O)C1(Cc2ccccc2)CCN(c2nc(N)c3cc(OC)c(OC)cc3n2)CC1)c1ccccc1 [Example 51, 1-(4-Amino-6,7-dimethoxy-quinazolin-2-yl)-4-benyzl-piperidine-4-carboxylic acid ((R)-1-phenyl-propyl)-amide] | 16.6 nM
COc1cc2nc(N3CCC(Cc4ccccc4)(C(=O)NC4CCc5ccccc5C4)CC3)nc(O)c2cc1OC (stereo not drawn) [Example 58, 4-Benzyl-1-(4-hydroxy-6,7-dimethoxy-quinazolin-2-yl)-piperidine-4-carboxylic acid (1,2,3,4-tetrahydro-naphthalen-2-yl)-amide] | 3.8 nM
COc1cc2nc(N3CCC(Cc4ccccc4)(C(=O)N[C@H](C)c4ccccc4)CC3)nc(N)c2cc1OC [Example 49, 1-(4-Amino-6,7-dimethoxy-quinazolin-2-yl)-4-benzyl-piperidine-4-carboxylic acid ((R)-1-phenyl-ethyl)-amide] | 20.6 nM
COc1cc2nc(N3CCC(Cc4ccccc4)(C(=O)NC4Cc5cc(Cl)ccc5C4O)CC3)nc(O)c2cc1OC (stereo not drawn) [Example 65, 4-Benzyl-1-(4-hydroxy-6,7-dimethoxy-quinazolin-2-yl)-piperidine-4-carboxylic acid (5-chloro-1-hydroxy-indan-2-yl)-amide] | 51.6 nM
COc1cc2nc(N3CCC(Cc4ccccc4)(C(=O)NC4Cc5ccccc5C4)CC3)nc(N)c2cc1OC [Example 19, 1-(4-Amino-6,7-dimethoxy-quinazolin-2-yl)-4-benzyl-piperidine-4-carboxylic acid indan-2-ylamie] | 27.8 nM
COc1cc2nc(N3CCC(Cc4ccccc4)(C(=O)NCc4ccccc4)CC3)nc(O)c2cc1C#N [Example 97, 4-Benzyl-1-(6-cyano-4-hydroxy-7-methoxy-quinazolin-2-yl)-piperidine-4-carboxylic acid benzylamide] | 15.8 nM
COc1cc2nc(N3CCC(Cc4ccccc4)(C(=O)NCc4ccccc4)CC3)nc(NC3CC3)c2cc1OC [Example 15, 4-Benzyl-1-(4-cyclopropylamino-6,7-dimethoxy-quinazolin-2-yl)-piperidine-4-carboxylic acid benzylamide] | 69.3 nM
COc1cc2nc(N3CCC(Cc4ccccc4)(C(=O)NCc4ccccc4)CC3)nc(N)c2cc1OC [Example 10, l-(4-Amino-6,7-dimethoxy-quinazolin-2-yl)-4-benzyl-piperidine-4-carboxylic acid benzylamide] | 18.3 nM
COc1ccc2c(O)nc(N3CCC(Cc4ccccc4)(C(=O)NCc4ccccc4)CC3)nc2c1 [Example 95, 4-Benzyl-1-(4-hydroxy-7-methoxy-quinazolin-2-yl)-piperidine-4-carboxylic acid benzylamide] | 5.1 nM
COc1cc2nc(N3CCC(Cc4ccccc4)(C(=O)NC4CCc5ccccc5C4O)CC3)nc(O)c2cc1OC (stereo not drawn) [Example 68, 4-Benzyl-1-(4-hydroxy-6,7-dimethoxy-quinazolin-2-yl)-piperidine-4-carboxylic acid (1-hydroxy-1,2,3,4-tetrahydro-naphthalen-2-yl)-amide] | 83.9 nM
COc1cc2nc(N3CCC(CC4CCC4)(C(=O)NC4Cc5ccccc5C4)CC3)nc(O)c2cc1OC [Example 79, 4-Cyclobutylmethyl-1-(4-hydroxy-6,7-dimethoxy-quinazolin-2-yl)-piperidine-4-carboxylic acid indan-2-ylamide] | 83 nM
COc1cc2nc(N3CCC(Cc4ccccc4)(C(=O)NC(C)c4ccc(Cl)cc4)CC3)nc(N)c2cc1OC (stereo not drawn) [Example 25, 1-(4-Amino-6,7-dimethoxy-quinazolin-2-yl)-4-benzyl-piperidine-4-carboxylic acid [1-(4-chloro-phenyl)-ethyl]-amide] | 95.1 nM
COc1cc2nc(N3CCC(CC4CC4)(C(=O)N(C)Cc4ccccc4)CC3)nc(O)c2cc1OC [Example 75, 4-Cylcopropylmethyl-1-(4-hydroxy-6,7-dimethoxy-quinazolin-2-yl)-piperidine-4-carobxylic acid benzyl-methyl-amide] | 47.8 nM
COc1cc2nc(N3CCC(Cc4ccccc4)(C(=O)NCc4ccc(N(C)C)cc4)CC3)nc(N)c2cc1OC [Example 33, 1-(4-Amino-6,7-dimethoxy-quinazolin-2-yl)-4-benzyl-piperidine-4-carboxylic acid 4-dimethylamino-benzylamide] | 17.2 nM
COc1cc2nc(N3CCC(Cc4ccccc4)(C(=O)NCc4ccc(OC(F)F)cc4)CC3)nc(N)c2cc1OC [Example 20, 1-(4-Amino-6,7-dimethoxy-quinazolin-2-yl)-4-benzyl-piperidine-4-carboxylic acid 4-difluoromethoxy-benzylamide] | 46.3 nM
COc1cc2nc(N3CCC(Cc4ccccc4)(C(=O)NCc4ccccc4)CC3)nc(O)c2cc1OC(C)C [Example 91, 4-Benzyl-1-(4-hydroxy-6-isopropoxy-7-methoxy-quinazolin-2-yl)-piperidine-4-carboxylic acid benzylamide] | 5.4 nM
COc1cc2nc(N3CCC(Cc4ccccc4)(C(=O)N(C)Cc4ccccc4)CC3)nc(O)c2cc1OC [Example 54, 4-Benzyl-1-(4-hydroxy-6,7-dimethoxy-quinazolin-2-yl)-piperidine-4-carboxylic acid benzyl-methyl-amide] | 4.8 nM
COc1cc2nc(N3CCC(Cc4ccccc4)(C(=O)NCc4ccccc4)CC3)nc(O)c2cc1OC [Example 17, 4-Benzyl-1-(4-hydroxy-6,7-dimethoxy-quinazolin-2-yl)-piperdine-4-carboxylic acid benzylamide] | 3.6 nM
COc1cc2nc(N3CCC(Cc4ccccc4)(C(=O)NCc4ccccc4)CC3)nc(O)c2cc1C [Example 90, 4-Benzyl-1-(4-hydroxy-7-methoxy-6-methyl-quinazolin-2-yl)-piperidine-4-carboxylic acid benzylamide] | 13.3 nM
COc1cc2nc(N3CCC(Cc4ccccc4)(C(=O)NCc4ccco4)CC3)nc(N)c2cc1OC [Example 46, 1-(4-Amino-6,7-dimethoxy-quinazolin-2-yl)-4-benzyl-piperidine-4-carboxylic acid (furan-2-ylmethyl)-amide] | 43.8 nM
CCOc1cc2nc(N3CCC(Cc4ccccc4)(C(=O)NCc4ccccc4)CC3)nc(O)c2cc1OC(F)F [Example 94, 4-Benzyl-1-(6-difluoromethoxy-7-ethoxy-4-hydroxy-quinazolin-2-yl)-piperidine-4-carboxylic acid benzylamide] | 8.3 nM
COc1cc2nc(N3CCC(Cc4ccc(F)cc4)(C(=O)NCc4ccccc4)CC3)nc(N)c2cc1OC [Example 4, 1-(4-Amino-6,7-dimethoxy-quinazolin-2-yl)-4-(4-fluoro-benzyl)-piperidine-4-carboxylic acid benzylamide] | 37.3 nM
COc1cc2nc(N3CCC(CC4CC4)(C(=O)NCc4ccccc4)CC3)nc(O)c2cc1OC [Example 72, 4-Cyclopropylmethyl-1-(4-hydroxy-6,7-dimethoxy-quinazolin-2-yl)-piperidine-4-carboxylic acid benzylamide] | 38.3 nM
COc1cc2nc(N3CCC(Cc4ccccc4)(C(=O)N[C@H]4c5ccccc5C[C@@H]4O)CC3)nc(N)c2cc1OC [Example 39, 1-(4-Amino-6,7-dimethoxy-quinazolin-2-yl)-4-benzyl-piperidine-4-carboxylic acid ((1S,2S)-2-hydroxy-indan-1-yl)-amide] | 3.6 nM

Source: patent US8318749B2, “Quinazoline derivatives as NK3 receptor antagonists” (Hoffmann-La Roche Inc., priority 2008, dated 2012)
